# Reference: the supplement of paper PMC10307832
# How the values were obtained:
# Assay in all cases: relative viability (nuclei count vs DMSO), 5 days (fraction); higher = more cells survive
# [1] = compound: C1COCCN1C2=NC(=NC3=C2OC4=C3C=CC=N4)C5=CC(=CC=C5)NC(=O)C6=CN=C(C=C6)N + O=C(c1cc(Cc2n[nH]c(=O)c3ccccc23)ccc1F)N1CCN(C(=O)C2CC2)CC1 [Olaparib] (partner 8 µM)
# How it was run: (§1)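 Medians of duplicate plates are given as relative viability. That measure is the nuclei count in treated wells divided by the count in vehicle wells. Counts were taken on 4× images of lung cancer cell lines in 1536-well plates, 5 days after pin-tool dosing the day after seeding with one drug alone or a fixed anchor-drug dose plus five library-drug doses (not always all listed) in √10 steps.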
# [2] = compound: C1COCCN1C2=NC(=NC3=C2OC4=C3C=CC=N4)C5=CC(=CC=C5)NC(=O)C6=CN=C(C=C6)N + C[C@@H](Oc1cc(-c2cnn(C3CCNCC3)c2)cnc1N)c1c(Cl)ccc(F)c1Cl [Crizotinib] (partner 1 µM)
# How it was run: as §1
# [3] = compound: C1COCCN1C2=NC(=NC3=C2OC4=C3C=CC=N4)C5=CC(=CC=C5)NC(=O)C6=CN=C(C=C6)N + C[C@]1(O)C[C@@H](c2nc(-c3ccc4ccc(-c5ccccc5)nc4c3)c3c(N)nccn32)C1 [Linsitinib] (partner 1 µM)
# How it was run: as §1
# [4] = compound: C1COCCN1C2=NC(=NC3=C2OC4=C3C=CC=N4)C5=CC(=CC=C5)NC(=O)C6=CN=C(C=C6)N + Cc1nc(NC(=O)N2CCC[C@H]2C(N)=O)sc1-c1ccnc(C(C)(C)C(F)(F)F)c1 [Alpelisib] (partner 2 µM)
# How it was run: as §1
Cell Line,relative viability ([1]; first compound 0.02 µM),relative viability ([1]; first compound 0.06325 µM),relative viability ([1]; first compound 0.2 µM),relative viability ([1]; first compound 0.6325 µM),relative viability ([1]; first compound 2 µM),relative viability ([2]; first compound 0.02 µM),relative viability ([2]; first compound 0.06325 µM),relative viability ([2]; first compound 0.2 µM),relative viability ([2]; first compound 0.6325 µM),relative viability ([2]; first compound 2 µM),relative viability ([3]; first compound 0.02 µM),relative viability ([3]; first compound 0.06325 µM),relative viability ([3]; first compound 0.2 µM),relative viability ([3]; first compound 0.6325 µM),relative viability ([3]; first compound 2 µM),relative viability ([4]; first compound 0.02 µM),relative viability ([4]; first compound 0.06325 µM),relative viability ([4]; first compound 0.2 µM),relative viability ([4]; first compound 0.6325 µM),relative viability ([4]; first compound 2 µM)
201T,0.854,0.879,0.837,0.923,0.458,1.02,1.05,1.03,1.01,0.736,1,1.01,1.05,0.981,0.97,1.03,1.03,0.926,0.96,0.966
A549,0.39,0.353,0.311,0.243,0.239,1,0.903,0.66,0.764,0.302,0.59,0.636,0.6,0.455,0.283,0.64,0.793,0.644,0.63,0.346
A-427,0.795,0.717,0.72,0.789,0.598,0.895,0.881,0.738,0.809,0.406,1.08,1.14,1.08,0.901,0.673,1.13,1.11,1.04,0.907,0.798
ABC-1,0.767,0.945,0.726,1.04,0.685,1.02,1.29,0.93,1.33,0.666,0.724,0.93,0.713,0.635,0.538,1.03,1.05,0.981,0.971,0.695
BEN,0.935,1.17,1.23,1.09,0.819,0.928,0.841,0.932,0.821,0.504,0.953,0.94,1.05,0.941,0.569,1.07,1.04,1.01,0.931,0.613
CAL-12T,0.66,0.727,0.69,0.764,0.569,0.843,0.634,0.688,0.559,0.507,0.622,0.813,0.886,0.782,0.584,1.26,1.29,1.26,1.15,0.537
COR-L23,0.391,0.371,0.317,0.353,0.271,0.68,0.748,0.716,0.809,0.43,1.16,0.978,0.933,1.04,0.543,0.958,0.876,0.844,0.868,0.589
COR-L 105,0.71,0.649,0.607,0.671,0.63,0.792,0.722,0.567,0.752,0.481,0.984,1.03,0.822,0.905,0.672,0.912,1.02,0.801,0.705,0.583
Calu-6,0.685,0.68,0.604,0.528,0.467,1.1,0.876,0.758,0.822,0.454,0.943,1.14,0.975,0.9,0.527,1.09,0.979,0.882,0.936,0.721
ChaGo-K-1,0.435,0.402,0.401,0.409,0.331,1.2,1.14,1.01,1.26,0.717,,,,,,,,,,
EBC-1,0.7,0.77,0.582,0.668,0.356,0.209,0.196,0.197,0.168,0.172,0.826,1.07,0.875,0.847,0.58,0.653,0.728,0.742,0.713,0.478
EKVX,0.929,0.831,0.88,0.832,0.563,1.06,0.985,1.03,1.03,0.62,1.1,1.02,1.1,0.972,0.642,0.838,0.787,0.94,0.867,0.572
EMC-BAC-2,0.483,0.484,0.472,0.476,0.445,0.8,0.792,0.76,0.805,0.598,0.815,0.83,0.749,0.762,0.491,0.794,0.867,0.785,0.707,0.589
EPLC-272H,0.732,0.807,0.547,0.721,0.58,0.977,1.03,1.01,1.04,0.722,1.27,1.07,1.12,1.01,0.721,0.972,0.883,0.974,0.967,0.673
H3255,0.522,0.531,0.531,0.56,0.436,0.729,0.805,0.758,0.844,0.586,0.908,1.09,1.04,0.949,0.702,0.577,0.714,0.628,0.693,0.483
HARA,0.845,0.727,1.09,0.764,0.75,1.01,1.23,1.06,0.978,0.662,1.15,1.04,1.02,0.783,0.361,0.927,0.946,0.922,0.743,0.436

Cell Line,relative viability ([1]; first compound 0.02 µM),relative viability ([1]; first compound 0.06325 µM),relative viability ([1]; first compound 0.2 µM),relative viability ([1]; first compound 0.6325 µM),relative viability ([1]; first compound 2 µM),relative viability ([2]; first compound 0.02 µM),relative viability ([2]; first compound 0.06325 µM),relative viability ([2]; first compound 0.2 µM),relative viability ([2]; first compound 0.6325 µM),relative viability ([2]; first compound 2 µM),relative viability ([3]; first compound 0.02 µM),relative viability ([3]; first compound 0.06325 µM),relative viability ([3]; first compound 0.2 µM),relative viability ([3]; first compound 0.6325 µM),relative viability ([3]; first compound 2 µM),relative viability ([4]; first compound 0.02 µM),relative viability ([4]; first compound 0.06325 µM),relative viability ([4]; first compound 0.2 µM),relative viability ([4]; first compound 0.6325 µM),relative viability ([4]; first compound 2 µM)
HCC-15,0.757,0.775,0.735,0.671,0.628,0.824,0.938,0.843,0.819,0.545,0.871,0.926,0.813,0.832,0.634,0.901,0.848,0.843,0.827,0.637
HCC-44,0.94,1.06,1.02,1.08,0.918,0.879,0.927,0.835,0.887,0.624,0.616,0.846,0.711,0.606,0.331,0.803,0.879,1.04,0.807,0.499
HCC-78,0.751,0.896,0.85,0.842,0.583,0.352,0.327,0.329,0.282,0.261,0.425,0.329,0.569,0.492,0.415,0.34,0.331,0.378,0.324,0.318
HCC-366,0.488,0.419,0.322,0.412,0.218,0.594,0.808,0.575,0.629,0.327,0.918,0.82,0.574,0.472,0.207,0.575,0.471,0.314,0.287,0.189
HCC-827,0.567,0.61,0.771,0.575,0.589,0.905,0.97,0.91,0.985,0.93,0.924,0.929,0.968,1.01,0.988,0.984,0.92,0.958,0.961,0.815
HOP-62,0.632,0.5,0.447,0.7,0.255,1.08,1.14,0.714,0.695,0.65,0.675,0.967,0.825,0.934,0.773,0.818,1.13,0.947,0.979,0.518
NCI-H522,0.584,0.649,0.63,0.554,0.525,,,,,,,,,,,,,,,
NCI-H1395,0.473,0.427,0.422,0.461,0.377,,,,,,0.901,1,1.08,1.19,0.875,1.03,1.03,0.998,1.45,0.89
NCI-H1563,,,,,,0.778,0.833,0.729,0.762,0.728,1.22,1.32,1.22,0.901,0.884,0.886,0.871,0.855,0.843,0.729
NCI-H1648,0.83,0.8,0.666,0.566,1.18,,,,,,,,,,,,,,,
NCI-H1650,0.72,0.903,0.757,0.88,0.591,1,1.05,0.94,1.06,0.601,,,,,,,,,,
NCI-H1793,0.831,0.884,0.968,0.769,0.508,,,,,,0.953,0.845,0.834,0.911,0.475,0.812,0.842,0.655,0.852,0.59
NCI-H2170,0.736,0.652,0.528,0.624,0.41,1.31,1.37,1.25,1.12,0.668,,,,,,0.847,0.887,0.682,0.854,0.496
NCI-H2342,0.472,0.46,0.402,0.391,0.4,,,,,,,,,,,,,,,
SW 900,0.981,0.945,0.743,0.804,0.655,,,,,,,,,,,,,,,
